Each structure is given as a SMILES string.

Experiment [1] relates to HdhQ111 mouse striatal cells. Briefly: HMGB1 release after serum withdrawal. Particulars: 24 h serum withdrawal, 3 μM. Format: cell-based. On the procedure:
HdhQ7 and Q111 mouse striatal cells were treated with the HV-3 peptide or the control peptide TAT (3 μM, each) in an FBS-free DMEM medium or in DMEM containing 10% serum for 24 h. Medium from the cultured cells was harvested. Proteins from the medium were purified using Amicon Ultra 0.5 ml centrifugal filters (Millipore). HMGB1 release into the medium was then analysed by Western blotting with anti-HMGB1 antibody. In parallel, cell death was determined by measuring LDH release into the culture medium, using LDH-Cytotoxicity Assay Kit II (Roche, USA) by following the manufacturer's instruction.

In experiment [2] the test system is interaction between VCP and UBXD1. Briefly: Co-immunoprecipitation VCP/UBXD1. Format: cell-based. Particulars: HV-3 treatment; total cell lysates, IP/WB. The procedure:
(b) Stick drawings of VCP and Htt main domains. […] Immunoprecipitates were analysed by WB with the indicated antibodies. […] VCP mitochondrial levels were determined by WB. Loading control: VDAC. Data are mean±s.e.m. (g–i) ANOVA with Holm-Sidak post hoc test.

The test system of experiment [3] is HD patient-iPS cell derived neurons. Briefly: Mitochondrial membrane potential (TMRM), iPS neurons. Particulars: 1 μM per day for 5 days. Type of experiment: cell-based, human. The procedure: iPS cells from a normal subject and a HD patient (carrying 41 CAG repeats) were differentiated into neurons using the protocol from our previous studies. Briefly, iPS cells were plated onto 6-well plates precoated with 2.5% Matrigel and allowed to reach 90% confluence in feeder-free medium. For the first 10 days, cells were treated with SB431542 (10 μM; Tocris Bioscience) and Noggin (100 ng/ml) in Neural Media (NM) containing Neurobasal and DMEM (1:1), B27 supplement minus vitamin A (50 × , Invitrogen), N2 supplement (100 × , Invitrogen), GlutaMax (Invitrogen, 100 × ), FGF2 ([…]) and EGF ([…]), 100 units per ml penicillin and 100 μg ml^−1 streptomycin). […]
To determine mitochondrial mass in cultures, cells were stained with antibodies against Tom20 or stained with Mitotracker green. The fluorescent density of Tom20 (1:500) or mitotracker green was quantitated using NIH Image J software. […] The images were visualized by microscope and quantitation of the density of red fluorescence was carried out using NIH ImageJ software. For immunocytochemistry study, at least 100 cells per group were counted and quantitated by an observer blind to experimental conditions.

Turning to `CSCC[C@H](NC(=O)[C@@H](NC(=O)[C@H](CC(C)C)NC(=O)[C@@H](NC(=O)[C@H](Cc1c[nH]cn1)NC(=O)CCCCCNC(=O)[C@H](CCCNC(=N)N)NC(=O)[C@H](CCCNC(=N)N)NC(=O)[C@H](CCCNC(=N)N)NC(=O)[C@H](CCC(N)=O)NC(=O)[C@H](CCCNC(=N)N)NC(=O)[C@H](CCCNC(=N)N)NC(=O)[C@H](CCCCN)NC(=O)[C@H](CCCCN)NC(=O)[C@H](CCCNC(=N)N)NC(=O)CNC(=O)[C@@H](N)Cc1ccc(O)cc1)C(C)C)C(C)C)C(=O)N[C@@H](CS)C(=O)N[C@@H](C)C(=O)N[C@H](C(N)=O)[C@@H](C)O` [HV-3], in experiment [1], the HMGB1 release result is “reduced the release of high mobility group box 1 (HMGB1)”. Moreover, the “interaction between VCP and UBXD1” value in experiment [2] is “nor did it influence the interaction between VCP and its known binding protein UBXD1”. Also, the mitochondrial membrane potential entry in experiment [3] is reported as “improved MMP”.
